Measured values: PubChem BioAssay (NCI)
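Tested at 5 concentrations; 48 h exposure; 96-well plates; endpoints linearly interpolated, else capped at highest concentration. TGI denotes the concentration required for complete inhibition of growth.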

Key:
Assay in all cases: NCI anticancer screen, dose series, 48 h
OVCAR-4 ovarian = tested on: OVCAR-4 ovarian
LOX IMVI melanoma = tested on: LOX IMVI melanoma
MDA-MB-231 breast = tested on: MDA-MB-231 breast
HS 578T breast = tested on: HS 578T breast
A498 renal = tested on: A498 renal
NCI-H460 lung = tested on: NCI-H460 lung
HOP-62 NSCLC = tested on: HOP-62 NSCLC
MALME-3M melanoma = tested on: MALME-3M melanoma
U251 CNS = tested on: U251 CNS
BT-549 breast = tested on: BT-549 breast
UO-31 renal = tested on: UO-31 renal
SF-539 CNS = tested on: SF-539 CNS
NCI-H522 lung = tested on: NCI-H522 lung
EKVX NSCLC = tested on: EKVX NSCLC
SK-MEL-5 melanoma = tested on: SK-MEL-5 melanoma
SNB-75 CNS = tested on: SNB-75 CNS
M14 melanoma = tested on: M14 melanoma
UACC-62 melanoma = tested on: UACC-62 melanoma
CAKI-1 renal = tested on: CAKI-1 renal
MOLT-4 leukemia = tested on: MOLT-4 leukemia
OVCAR-3 ovarian = tested on: OVCAR-3 ovarian
UACC-257 melanoma = tested on: UACC-257 melanoma
HCT-116 colon = tested on: HCT-116 colon
NCI-H23 lung = tested on: NCI-H23 lung
SW-620 colon = tested on: SW-620 colon
T-47D breast = tested on: T-47D breast
786-0 renal = tested on: 786-0 renal
SK-MEL-28 melanoma = tested on: SK-MEL-28 melanoma
SR leukemia = tested on: SR leukemia
RXF 393 renal = tested on: RXF 393 renal
K-562 leukemia = tested on: K-562 leukemia
DU-145 prostate = tested on: DU-145 prostate
SF-268 CNS = tested on: SF-268 CNS
TK-10 renal = tested on: TK-10 renal
HCC-2998 colon = tested on: HCC-2998 colon
MCF7 breast = tested on: MCF7 breast
SN12C renal = tested on: SN12C renal
ACHN renal = tested on: ACHN renal
SNB-19 CNS = tested on: SNB-19 CNS
COLO 205 colon = tested on: COLO 205 colon
SK-MEL-2 melanoma = tested on: SK-MEL-2 melanoma
PC-3 prostate = tested on: PC-3 prostate
RPMI-8226 leukemia = tested on: RPMI-8226 leukemia
KM12 colon = tested on: KM12 colon
CCRF-CEM leukemia = tested on: CCRF-CEM leukemia
OVCAR-5 ovarian = tested on: OVCAR-5 ovarian
A549 NSCLC = tested on: A549 NSCLC
MDA-N = tested on: MDA-N
MDA-MB-435 = tested on: MDA-MB-435
OVCAR-8 ovarian = tested on: OVCAR-8 ovarian
SK-OV-3 ovarian = tested on: SK-OV-3 ovarian
SF-295 CNS = tested on: SF-295 CNS
HL-60(TB) leukemia = tested on: HL-60(TB) leukemia
IGROV1 ovarian = tested on: IGROV1 ovarian
HCT-15 colon = tested on: HCT-15 colon
HOP-92 NSCLC = tested on: HOP-92 NSCLC
HT29 colon = tested on: HT29 colon
NCI/ADR-RES ovarian = tested on: NCI/ADR-RES ovarian

## CCOP(=O)(OCC)[C@]12C[C@@H](C)C=C[C@H]1COC2=O
OVCAR-4 ovarian
  TGI: > 100 µM
LOX IMVI melanoma
  TGI: > 100 µM
MDA-MB-231 breast
  TGI: > 100 µM
HS 578T breast
  TGI: > 100 µM
A498 renal
  TGI: > 100 µM
NCI-H460 lung
  TGI: > 100 µM
HOP-62 NSCLC
  TGI: > 100 µM
MALME-3M melanoma
  TGI: > 100 µM
U251 CNS
  TGI: > 100 µM
BT-549 breast
  TGI: > 100 µM
UO-31 renal
  TGI: > 100 µM
SF-539 CNS
  TGI: > 100 µM
NCI-H522 lung
  TGI: > 100 µM
EKVX NSCLC
  TGI: > 100 µM
SK-MEL-5 melanoma
  TGI: > 100 µM
SNB-75 CNS
  TGI: > 100 µM
M14 melanoma
  TGI: > 100 µM
UACC-62 melanoma
  TGI: > 100 µM
CAKI-1 renal
  TGI: > 100 µM
MOLT-4 leukemia
  TGI: > 100 µM
OVCAR-3 ovarian
  TGI: > 100 µM
UACC-257 melanoma
  TGI: > 100 µM
HCT-116 colon
  TGI: > 100 µM
NCI-H23 lung
  TGI: > 100 µM
SW-620 colon
  TGI: > 100 µM
T-47D breast
  TGI: > 100 µM
786-0 renal
  TGI: > 100 µM
SK-MEL-28 melanoma
  TGI: > 100 µM
SR leukemia
  TGI: > 100 µM
RXF 393 renal
  TGI: > 100 µM
K-562 leukemia
  TGI: > 100 µM
DU-145 prostate
  TGI: > 100 µM
SF-268 CNS
  TGI: > 100 µM
TK-10 renal
  TGI: > 100 µM
HCC-2998 colon
  TGI: > 100 µM
MCF7 breast
  TGI: > 100 µM
SN12C renal
  TGI: > 100 µM
ACHN renal
  TGI: > 100 µM
SNB-19 CNS
  TGI: > 100 µM
COLO 205 colon
  TGI: > 100 µM
SK-MEL-2 melanoma
  TGI: > 100 µM
PC-3 prostate
  TGI: > 100 µM
RPMI-8226 leukemia
  TGI: > 100 µM
KM12 colon
  TGI: > 100 µM
CCRF-CEM leukemia
  TGI: > 100 µM
OVCAR-5 ovarian
  TGI: > 100 µM
A549 NSCLC
  TGI: > 100 µM
MDA-N
  TGI: > 100 µM
MDA-MB-435
  TGI: > 100 µM
OVCAR-8 ovarian
  TGI: > 100 µM
SK-OV-3 ovarian
  TGI: > 100 µM
SF-295 CNS
  TGI: > 100 µM

## CC(O)C(O)C(O)C(/C=N\Nc1ccccc1)=N/Nc1ccccc1 (configuration not stated)
LOX IMVI melanoma
  TGI: 18.1 µM
MDA-MB-231 breast
  TGI: 27.3 µM
HS 578T breast
  TGI: 24.7 µM
HL-60(TB) leukemia
  TGI: 45.3 µM
A498 renal
  TGI: 22.6 µM
NCI-H460 lung
  TGI: 24.6 µM
HOP-62 NSCLC
  TGI: 30.3 µM
MALME-3M melanoma
  TGI: 43.5 µM
U251 CNS
  TGI: 27.2 µM
BT-549 breast
  TGI: 29.4 µM
UO-31 renal
  TGI: 25.7 µM
SF-539 CNS
  TGI: 28.3 µM
NCI-H522 lung
  TGI: 20.9 µM
EKVX NSCLC
  TGI: 27.6 µM
SK-MEL-5 melanoma
  TGI: 28.5 µM
SNB-75 CNS
  TGI: 38.4 µM
M14 melanoma
  TGI: 27.9 µM
UACC-62 melanoma
  TGI: 22.2 µM
CAKI-1 renal
  TGI: 11.1 µM
MOLT-4 leukemia
  TGI: 69.5 µM
OVCAR-3 ovarian
  TGI: 40.4 µM
HCT-116 colon
  TGI: 30.5 µM
NCI-H23 lung
  TGI: 24.1 µM
IGROV1 ovarian
  TGI: 21.4 µM
SW-620 colon
  TGI: 25.8 µM
HCT-15 colon
  TGI: 27 µM
T-47D breast
  TGI: 45.9 µM
786-0 renal
  TGI: 29.8 µM
HOP-92 NSCLC
  TGI: 36 µM
SK-MEL-28 melanoma
  TGI: 30.2 µM
SR leukemia
  TGI: 41.9 µM
K-562 leukemia
  TGI: 40.8 µM
DU-145 prostate
  TGI: 35.7 µM
SF-268 CNS
  TGI: 24.5 µM
TK-10 renal
  TGI: 35.4 µM
HCC-2998 colon
  TGI: 23.3 µM
MCF7 breast
  TGI: 24.1 µM
SN12C renal
  TGI: 34.5 µM
ACHN renal
  TGI: 25.3 µM
SNB-19 CNS
  TGI: 29.1 µM
COLO 205 colon
  TGI: 27.4 µM
SK-MEL-2 melanoma
  TGI: 21.5 µM
PC-3 prostate
  TGI: 49.6 µM
RPMI-8226 leukemia
  TGI: 57.1 µM
KM12 colon
  TGI: 21.6 µM
CCRF-CEM leukemia
  TGI: 52.3 µM
OVCAR-5 ovarian
  TGI: 27.5 µM
A549 NSCLC
  TGI: 28.7 µM
MDA-N
  TGI: 25.1 µM
MDA-MB-435
  TGI: 26.7 µM
OVCAR-8 ovarian
  TGI: 38.1 µM
SK-OV-3 ovarian
  TGI: 29.7 µM
SF-295 CNS
  TGI: 25.7 µM
HT29 colon
  TGI: 30.8 µM
NCI/ADR-RES ovarian
  TGI: 40.2 µM
